Data on one compound can be found in patent US11931459B2, “Treatment of pain in pediatric patients by administration of sustained-release liposomal anesthetic compositions” (Pacira Pharmaceuticals, Inc., priority 2021, dated 2024).

A short description of data set [1]: Bupivacaine PK after local infiltration, noncompartmental analysis (PLAY phase 3 trial, NCT03682302). The arrangement: species or system human. The following applies: in vivo; for AUC(0-inf): AUC0-∞. The protocol: • Methods: A multicenter, open-label, phase 3, randomized trial (PLAY; NCT03682302) was conducted, with primary and secondary objectives evaluating the pharmacokinetics and safety, respectively, of multivesicular liposomal bupivacaine (EXPAREL®) in pediatric patients (age group 1: 12 to <17 years; age group 2: 6 to <12 years). The hypothesis was that the pharmacokinetics and safety profiles would support the safety of EXPAREL® (also referred to herein as “multivesicular liposomal bupivacaine” or “liposomal bupivacaine”) in pediatric patients. Age group 1 received 4 mg/kg liposomal bupivacaine or 2 mg/kg bupivacaine hydrochloride (HCl) at the end of spine surgery; all patients in age group 2 received liposomal bupivacaine (4 mg/kg) at the end of spine or cardiac surgery. […] In age group 2, 100% and 31% of patients undergoing spine (n=5) and cardiac (n=9) surgery experienced TEAEs, respectively. TEAEs were generally mild or moderate, with no discontinuations due to TEAEs or deaths. […] TEAEs were mild to moderate, supporting the safety of liposomal bupivacaine in pediatric patients undergoing spine or cardiac surgery. Study Design
This study was performed in 2 parts. Part 1 evaluated PK and safety of liposomal bupivacaine. Part 2 followed part 1 and further evaluated the safety of liposomal bupivacaine. For both parts of the study, pediatric patients aged 12 to <17 years (age group 1) were analyzed separately from patients aged 6 to <12 years (age group 2), per FDA guidance for safety studies in pediatric patients.^25
In age group 1, eligible pediatric patients aged 12 to <17 years undergoing spine surgery were randomized 1:1 to receive a single dose of either liposomal bupivacaine (4 mg/kg up to 266 mg) diluted with normal saline, or bupivacaine HCl (2 mg/kg up to 175 mg) via local infiltration at the end of surgery. Randomization was performed with a centralized randomization system using a unique subject identifier and unique random code identifier. In age group 2, all eligible pediatric patients aged 6 to <12 years of age undergoing either spine or cardiac surgery received liposomal bupivacaine (4 mg/kg up to 266 mg) via local infiltration at the end of surgery. Dosing for both age groups was weight based. Guidelines and training were shared with the participating surgeons to ensure reliability in infiltration techniques.
Across age groups and surgical procedures, surgeons administered liposomal bupivacaine or bupivacaine HCl via local infiltration prior to wound closure, with liposomal bupivacaine and bupivacaine HCl administered in small increments into the deep and superficial layers along the entire length of the incision site to ensure uniform drug distribution. Use of intraoperative opioids, acetaminophen, or other nonsteroidal anti-inflammatory drugs as well as postsurgical pain medication in cases of insufficient analgesia during and after surgery was permitted in accordance with the standard of care at each site. Use of local anesthetics within 96 hours after administration of liposomal bupivacaine was prohibited.
The primary objective was to analyze PK of liposomal bupivacaine, including area under the plasma concentration-time curve (AUC), maximum plasma concentration (Cmax), time to Cmax (Tmax), apparent elimination half-life (t1/2), apparent clearance (CL/F), and apparent volume of distribution (Vd/F). To assess plasma concentration of bupivacaine, 8 blood samples were collected up to 42-60 hours after spine surgery and up to 64-72 hours after cardiac surgery in each patient. For both procedures, the first 4 samples were collected ˜15, ˜30, ˜45, and 60-75 minutes after liposomal bupivacaine administration. The last 4 samples were collected in time windows rather than precise time points. For spine surgery, sample windows were 2-3,10-18, 24-36, and 42-60 hours after receiving liposomal bupivacaine or bupivacaine HCl. […]

The nature of data set [2]: Bupivacaine PK, nonlinear mixed-effect modeling (population PK method). The format is in vivo, human. As to the method:
The sample size was determined on the basis of the number of patients needed to characterize the PK profile of liposomal bupivacaine in pediatric patients per FDA requirements. Authorized staff or a designee obtained the randomization assignment once eligible patients were at the clinic site for surgery. Descriptive statistics (number, mean, standard deviation [SD], median, minimum, maximum) were calculated for continuous data; tabulations (number and percentage) were calculated for categorial data. PK analysis included pediatric patients who underwent surgery, received treatment, and provided at least 1 blood sample for quantifiable plasma concentration measurement. PK measures were assessed by noncompartmental analysis. A separate PK analysis was conducted using nonlinear mixed-effect modeling (population PK method) with the spine surgery cohorts combined. The safety analysis included pediatric patients who underwent surgery and received treatment. The incidence of patients reporting TEAEs was tabulated by the number and percentage of patients reporting the TEAE. All analyses and tabulations were performed using SAS, version 9.4; PK descriptive statistics were performed using Sigmastat and Microsoft Excel.
Across age groups, trends in PK parameters between liposomal bupivacaine and bupivacaine HCl using the population PK model were consistent with those observed with noncompartmental analysis (Table 4). The PK of bupivacaine in both age groups and surgery cohorts were adequately described by a linear 2-compartment PK model with fast and slow absorption routes for liposomal bupivacaine. For each treatment (liposomal bupivacaine or bupivacaine HCl), the Cmax in 12-year-old patients was predicted to be similar to that in 17-year-old patients in pediatric patients undergoing spine surgery.

Data set [3] can be described thus: Safety: treatment-emergent adverse events up to 30 days after surgery (PLAY trial). In kind it is in vivo. The settings on record: age group 1 (12 to <17 years), spine surgery; liposomal bupivacaine 4 mg/kg or bupivacaine HCl 2 mg/kg. As to the method: • Methods: A multicenter, open-label, phase 3, randomized trial (PLAY; NCT03682302) was conducted, with primary and secondary objectives evaluating the pharmacokinetics and safety, respectively, of multivesicular liposomal bupivacaine (EXPAREL®) in pediatric patients (age group 1: 12 to <17 years; age group 2: 6 to <12 years). The hypothesis was that the pharmacokinetics and safety profiles would support the safety of EXPAREL® (also referred to herein as “multivesicular liposomal bupivacaine” or “liposomal bupivacaine”) in pediatric patients. Age group 1 received 4 mg/kg liposomal bupivacaine or 2 mg/kg bupivacaine hydrochloride (HCl) at the end of spine surgery; all patients in age group 2 received liposomal bupivacaine (4 mg/kg) at the end of spine or cardiac surgery. […]
The sample size was determined on the basis of the number of patients needed to characterize the PK profile of liposomal bupivacaine in pediatric patients per FDA requirements. […] Descriptive statistics (number, mean, standard deviation [SD], median, minimum, maximum) were calculated for continuous data; tabulations (number and percentage) were calculated for categorial data. PK analysis included pediatric patients who underwent surgery, received treatment, and provided at least 1 blood sample for quantifiable plasma concentration measurement. PK measures were assessed by noncompartmental analysis. […]

Where a name gives a salt, the structure may show the parent alone.

Regarding `CCCCN1CCCCC1C(=O)Nc1c(C)cccc1C` (stereo not drawn) [bupivacaine HCl, bupivacaine hydrochloride], the Tmax (as a rule, the time at which the peak concentration occurs) in data set [1] (human) was around 1 h; in data set [1] (human, 2 mg/kg), 0.9 h. The AUC(0-inf) worked out at 5060 ng·h/mL in data set [1] (human, 2 mg/kg, Geometric mean); 5710 ng·h/mL in data set [1] (human, 2 mg/kg, Mean); 6400 ng·h/mL in data set [2] (human, plasma, population PK method, spine surgery: liposomal bupivacaine 4 mg/kg (6 to <17 y, n = 18) or bupivacaine HCl 2 mg/kg (12 to <17 y, n = 15), read-out: AUC0-∞, geometric mean). Further, the Vd/F in data set [1] (human, 2 mg/kg, Geometric mean) is 201 L; in data set [1] (human, 2 mg/kg, Mean), 227 L; in data set [2] (human, plasma, population PK method, spine surgery: liposomal bupivacaine 4 mg/kg (6 to <17 y, n = 18) or bupivacaine HCl 2 mg/kg (12 to <17 y, n = 15), read-out: Vss/F, geometric mean), 153 L. The half-life in data set [1] (human, 2 mg/kg, t1/2, Geometric mean) is 7.4 h; in data set [1] (human, 2 mg/kg, t1/2, Mean) it was 8.4 h; in data set [2] (human, plasma, population PK method, spine surgery: liposomal bupivacaine 4 mg/kg (6 to <17 y, n = 18) or bupivacaine HCl 2 mg/kg (12 to <17 y, n = 15), read-out: t1/2, geometric mean (converted)), 6.5 h. Besides, the Cmax is 488 ng/mL in data set [1] (human, age group 1 (12 to <17 years), spine surgery, local infiltration, liposomal bupivacaine 4 mg/kg (n = 15) or bupivacaine HCl 2 mg/kg (n = 15), read-out: Cmax, Geometric mean) and 444 ng/mL in data set [2] (human, plasma, population PK method, spine surgery: liposomal bupivacaine 4 mg/kg (6 to <17 y, n = 18) or bupivacaine HCl 2 mg/kg (12 to <17 y, n = 15), read-out: Early Cmax, geometric mean). In addition, in data set [1], the “CL/F, Mean” value was found to be 20.5 L/h. Also, the “CL/F, geometric mean” value is 18.9 L/h in data set [1] and 16.8 L/h in data set [2] (population PK method, spine surgery: liposomal bupivacaine 4 mg/kg (6 to <17 y, n = 18) or bupivacaine HCl 2 mg/kg (12 to <17 y, n = 15)). Besides, in data set [2] (population PK model, spine surgery), the “Median predicted early Tmax” value is 0.667 h. In addition, the “discontinuations due to TEAEs or on-study deaths” value in data set [3] was “no discontinuations due to TEAEs or on-study deaths”.
